Experimental data published in the supplement of paper PMC9763283.
± gives the standard deviation of the averaged measurements.

Columns and labels:
Test in all cases: area under growth-rate inhibition curve (AUC GRI) (dimensionless (GR-based AUC)); higher = less growth inhibition
Conditions in all cases: exposure time: 72 h; concentrations: 0.1, 1, 10 uM
BT474-LTR = system: BT474-LTR
Procedure, shortened: (§1)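 Six breast cancer cell line models were used: two triple-negative lines, plus parental HER2+ lines and HER2+ lines resistant to a two-drug combination, each plated at an optimised log-phase density and treated with compound at 0.1, 1 or 10 µM for 72 h. After fixation in 4% paraformaldehyde, nuclei were stained with Hoechst 33342 or DAPI, imaged and counted. Growth was corrected using Day 0 plates, untreated Day 3 plates and DMSO controls, with 2 biological replicates. These corrected counts gave the area under the growth-rate inhibition curve.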

BT474-P = system: BT474-P
Procedure, shortened: as §1

MDA-MB-231 = system: MDA-MB-231
Procedure, shortened: as §1

MDA-MB-468 = system: MDA-MB-468
Procedure, shortened: as §1

SKBR3-LTR = system: SKBR3-LTR
Procedure, shortened: as §1

SKBR3-P = system: SKBR3-P
Procedure, shortened: as §1

| Structure (SMILES) | area under growth-rate inhibition curve (BT474-LTR) | area under growth-rate inhibition curve (BT474-P) | area under growth-rate inhibition curve (MDA-MB-231) | area under growth-rate inhibition curve (MDA-MB-468) | area under growth-rate inhibition curve (SKBR3-LTR) | area under growth-rate inhibition curve (SKBR3-P) |
| --- | --- | --- | --- | --- | --- | --- |
| CN1CCC(=C2c3ccccc3CC(=O)c3sccc32)CC1.O=C(O)/C=C/C(=O)O [Ketotifen Fumarate] | 1.07 | 1.02 | 0.939 | 1 | 1.1 | 1.01 |
| COc1cc(C(C)=O)ccc1OCCCN1CCC(c2noc3cc(F)ccc23)CC1 [Iloperidone] | 1.02 | 0.979 | 1.04 | 1.03 | 1.07 | 0.991 |
| CN1CCC(=C2c3ccccc3CCc3cccnc32)CC1.O=C(O)C=CC(=O)O.O=C(O)C=CC(=O)O [Azatadine dimaleate] | 1.12 | 1.07 | 1.05 | 1.05 | 1.01 | 1.02 |
| COc1ccccc1N1CCN(CC(O)COc2cccc3ccccc23)CC1.[Cl-].[Cl-].[H+].[H+] (stereo unspecified) [Naftopidil DiHCl] | 1.02 | 0.978 | 1.02 | 0.995 | 1.05 | 0.983 |
| COc1ccc(C[C@H](C)NC[C@@H](O)c2ccc(O)c(NC=O)c2)cc1.COc1ccc(C[C@H](C)NC[C@@H](O)c2ccc(O)c(NC=O)c2)cc1.O=C(O)/C=C/C(=O)O [Formoterol Hemifumarate] | 1.05 | 1.01 | 0.93 | 1.01 | 1.09 | 1.03 |
| Cc1cccc(C(C)c2c[nH]cn2)c1C.Cl (stereo unspecified) [Medetomidine HCl] | 0.982 | 0.995 | 1.01 | 1.02 | 0.995 | 1.03 |
| CCc1cc2c(cc1CC)CC(NC[C@H](O)c1ccc(O)c3[nH]c(=O)ccc13)C2.O=C(O)/C=C\C(=O)O [Indacaterol Maleate] | 1 | 0.978 | 0.903 | 0.93 | 1.01 | 0.955 |
| C=CCN1CCC23c4c5ccc(O)c4OC2C(OCCOCCOCCOCCOCCOCCOCCOC)CCC3(O)C1C5 (stereo unspecified) [Naloxegol] | 0.997 | 1 | 0.991 | 1.02 | 1.01 | 1.01 |
| CN1C2CCC1CC(OC(=O)C(CO)c1ccccc1)C2 (stereo unspecified) [Hyoscyamine] | 1.13 | 1.06 | 1.03 | 1.04 | 1.04 | 1.04 |
| CN1c2ccccc2C(NCCCCCCC(=O)[O-])c2ccc(Cl)cc2S1(=O)=O.[Na+] (stereo unspecified) [Tianeptine sodium] | 1.09 | 1.06 | 1.02 | 1.05 | 1.02 | 1.01 |
| CCCCN1CCCCC1C(=O)[NH2+]c1c(C)cccc1C.[Cl-] (stereo unspecified) [Bupivacaine HCl] | 1.12 | 1.1 | 1.04 | 1.07 | 1.1 | 1.06 |
| CN1CCCC(n2nc(Cc3ccc(Cl)cc3)c3ccccc3c2=O)CC1.[Cl-].[H+] (stereo unspecified) [Azelastine HCl] | 1.06 | 1.01 | 1.02 | 0.985 | 1.02 | 0.938 |
| CC(=O)CCCCn1c(=O)c2c(ncn2C)n(C)c1=O [Pentoxifylline] | 1.03 | 1 | 1.04 | 1.04 | 1.05 | 1.02 |
| CC(=O)NCCCS(=O)(=O)[O-].CC(=O)NCCCS(=O)(=O)[O-].[Ca+2] [Acamprosate calcium] | 1.01 | 1.01 | 0.995 | 1 | 1.03 | 1.01 |
| N#Cc1cc(CN2CCC(Nc3ncnc4sc(Cl)cc34)CC2)ccc1F.O=C(O)/C=C\C(=O)O | 0.875 | 0.879 | 0.988 | 0.885 | 0.964 | 0.839 |
| CC(C)NCC(O)c1ccc(O)c(O)c1.[Cl-].[H+] (stereo unspecified) [Isoprenaline HCl] | 1.08 | 1.04 | 1.05 | 1.04 | 1.03 | 0.995 |
| CC1(C)O[C@@H]2[C@@H](CO[C@@]3(COS(N)(=O)=O)OC(C)(C)O[C@@H]23)O1 [Topiramate] | 1.05 | 1.02 | 1.03 | 1.05 | 1.04 | 1.02 |
| CN/C(=C\[N+](=O)[O-])NCCSCc1csc(CN(C)C)n1 [Nizatidine] | 1.07 | 1.05 | 1.02 | 1.04 | 1.05 | 1 |
| COc1cc2c(cc1OC)C1Cc3ccc(OC)c(OC)c3CN1CC2 (stereo unspecified) [Rotundine] | 1.11 | 1.03 | 0.997 | 1.02 | 1.04 | 0.992 |
| C[N+]1(C)C2CC(OC(=O)C(CO)c3ccccc3)CC1C1OC12.[Br-] (stereo unspecified) [Methscopolamine] | 1.1 | 1.05 | 1.03 | 1.04 | 1.04 | 1.02 |
| CCN1CCCC1CNC(=O)c1cc(S(=O)(=O)CC)c(N)cc1OC (stereo unspecified) [Amisulpride] | 0.985 | 1.01 | 0.988 | 1.01 | 0.975 | 1.02 |
| CN1CCc2cccc3c2[C@H]1Cc1ccc(O)c(O)c1-3.[Cl-].[H+] [(R)-(-)-Apomorphine hydrochloride] | 0.963 | 0.933 | 1.03 | 0.977 | 1.04 | 0.965 |
| Cc1ccc(O)c([C@H](CCN(C(C)C)C(C)C)c2ccccc2)c1.O=C(O)[C@H](O)[C@@H](O)C(=O)O [Tolterodine tartrate] | 1.12 | 1.04 | 1.03 | 1.04 | 1.06 | 0.972 |
| Cl.O=C1CC[C@@]2(O)[C@H]3Cc4ccc(O)c5c4[C@@]2(CCN3CC2CC2)[C@H]1O5 [Naltrexone HCl] | 1.09 | 1.05 | 1.03 | 1.04 | 1.06 | 1.05 |
| Nc1cc(-c2ccncc2)c[nH]c1=O [inamrinone] | 1.03 | 0.994 | 1.04 | 1.06 | 1.05 | 1.03 |
| Cc1[nH]c(=O)c(C#N)cc1-c1ccncc1 [Milrinone] | 1.05 | 1.03 | 1.04 | 1.03 | 1.07 | 1.02 |

| Structure (SMILES) | area under growth-rate inhibition curve (BT474-LTR) | area under growth-rate inhibition curve (BT474-P) | area under growth-rate inhibition curve (MDA-MB-231) | area under growth-rate inhibition curve (MDA-MB-468) | area under growth-rate inhibition curve (SKBR3-LTR) | area under growth-rate inhibition curve (SKBR3-P) |
| --- | --- | --- | --- | --- | --- | --- |
| O=C(CCCN1CCC(O)(c2ccc(Cl)cc2)CC1)c1ccc(F)cc1.[Cl-].[H+] [Haloperidol hydrochloride] | 1.07 | 1.03 | 1.04 | 1.04 | 1.05 | 1.01 |
| COc1nc(C)cnc1NS(=O)(=O)c1cccnc1-c1ccc(-c2nnco2)cc1 [Zibotentan (ZD4054)] | 1.07 | 1.02 | 1.03 | 1.01 | 1.04 | 0.958 |
| CCCCC1=NC2(CCCC2)C(=O)N1Cc1ccc(-c2ccccc2-c2nn[nH]n2)cc1 [Irbesartan] | 1.063 ± 0.0091 | 1.032 ± 0.0013 | 1.042 ± 0.002 | 1.04 ± 0.023 | 1.04 ± 0.036 | 1.03 ± 0.019 |
| Cl.NC(CO)C(=O)NNCc1ccc(O)c(O)c1O (stereo unspecified) [Benserazide HCl] | 1.1 | 1.05 | 1.05 | 1.06 | 1.05 | 1.03 |
| C[C@]12CC[C@@H]3c4ccc(O)cc4CC[C@H]3[C@@H]1C[C@@H](O)[C@@H]2O [Estriol] | 1.01 | 0.979 | 0.988 | 0.987 | 1.01 | 0.989 |
| C[C@]12CC[C@@H]3c4ccc(O)cc4C[C@@H](CCCCCCCCCS(=O)CCCC(F)(F)C(F)(F)F)[C@H]3[C@@H]1CC[C@@H]2O (stereo partly specified) [Fulvestrant] | 0.986 | 0.778 | 1.02 | 0.96 | 1.01 | 0.952 |
| COc1ccc(C(CN(C)C)C2(O)CCCCC2)cc1 (stereo unspecified) [Venlafaxine] | 0.974 | 0.982 | 0.983 | 0.994 | 1.01 | 0.972 |
| CN(C)CC/C=C1\c2ccccc2COc2ccc(CC(=O)O)cc21.Cl [Olopatadine HCl] | 1.1 | 1.04 | 1.04 | 0.999 | 1.02 | 1.02 |
| COc1cc(OC)c(NC(=O)Nc2cc(C)on2)cc1Cl | 1.05 | 0.977 | 1.03 | 1.02 | 1.06 | 1 |
| CCCN1CCO[C@H]2c3cc(O)ccc3OC[C@@H]21 | 1.06 | 1.08 | 1.02 | 1.03 | 1.05 | 1.03 |
| C[N+]1(C)[C@@H]2CC(OC(=O)C(O)(c3cccs3)c3cccs3)C[C@H]1C1OC12.O.[Br-] (stereo partly specified) [Tiotropium Bromide hydrate] | 1.12 | 1.05 | 1.05 | 1.03 | 1.04 | 1.02 |
| N[C@@H](Cc1ccc(O)c(O)c1)C(=O)O [L-DOPA] | 1.04 | 0.987 | 1.05 | 1.05 | 1.05 | 1.03 |
| CNCCC(Oc1ccc(C(F)(F)F)cc1)c1ccccc1.[Cl-].[H+] (stereo unspecified) [Fluoxetine HCl] | 1.03 | 1.02 | 1 | 1.03 | 1 | 1.02 |
| CC(=O)Oc1cc2c(s1)CCN(C(C(=O)C1CC1)c1ccccc1F)C2 (stereo unspecified) [Prasugrel] | 1.13 | 1.05 | 1.03 | 1.04 | 1.03 | 1.02 |
| C=C[C@@]1(C)CC(=O)[C@]2(O)[C@@]3(C)[C@@H](O)CCC(C)(C)[C@@H]3[C@H](O)[C@H](OC(C)=O)[C@@]2(C)O1 [Forskolin] | 1.02 | 0.984 | 0.924 | 1.01 | 1.04 | 1.03 |
| CCCNS(=O)(=O)Nc1ncnc(OCCOc2ncc(Br)cn2)c1-c1ccc(Br)cc1 [Macitentan] | 1.01 | 0.957 | 1.02 | 1.02 | 1.02 | 1.02 |
| Cc1cc2c(s1)Nc1ccccc1N=C2N1CCN(C)CC1 [Olanzapine] | 1.08 | 1.02 | 1.01 | 1.03 | 1.06 | 0.97 |
| CN(C)C(=O)Oc1cc(OC(=O)N(C)C)cc(C(O)CNC(C)(C)C)c1.[Cl-].[H+] (stereo unspecified) [Bambuterol HCl] | 1.09 | 1.06 | 1.04 | 1.03 | 1.03 | 1.01 |
| CN(C)CC(c1ccc(O)cc1)C1(O)CCCCC1.O=C(O)CCC(=O)O (stereo unspecified) [Desvenlafaxine Succinate] | 1.09 | 1.06 | 1.02 | 1.05 | 1.08 | 1.01 |
| O=C(O)C=CC(=O)O.O=C(c1ccc(OCCCc2c[nH]cn2)cc1)C1CC1 [Ciproxifan] | 1.06 | 0.976 | 1.02 | 0.991 | 1.07 | 1.01 |
| O=C(O)c1cccnc1Nc1cccc(C(F)(F)F)c1 [Niflumic acid] | 1.07 | 1.01 | 1.03 | 1.03 | 1.04 | 1.01 |
| Cc1cc(NC(=O)Nc2ccc(N(C)C)cc2)c2cc(F)cc(F)c2n1 | 0.977 | 0.963 | 0.936 | 0.951 | 0.958 | 1 |
| CCOc1ccc(Cc2cc([C@@H]3O[C@H](SC)[C@@H](O)[C@H](O)[C@H]3O)ccc2Cl)cc1 [Sotagliflozin (LX4211)] | 1.06 | 1.02 | 1.01 | 0.996 | 1.1 | 1.02 |
| CC(=O)O[C@]1(C(C)=O)CC[C@H]2[C@@H]3C=C(C)C4=CC(=O)CC[C@]4(C)[C@H]3CC[C@@]21C [Megestrol Acetate] | 1.09 | 0.978 | 1 | 1.01 | 1.09 | 0.968 |
| COc1ccccc1N1CCN(CCN(C(=O)C2CCCCC2)c2ccccn2)CC1.O=C(O)/C=C\C(=O)O | 1.06 | 1.02 | 1.03 | 0.993 | 1.04 | 0.976 |
